Here are results for ten molecules from ChEMBL document CHEMBL1201862, “PubChem BioAssay data set” (2004).

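How tested: cells in 96-well plates exposed to compound for 48 hours at five concentrations. At the GI50, growth is halved.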 Active and inactive are the calls of the source. No stated cut-off is given here; in the data, active = GI50 up to about 1.1 µM and inactive = higher.

Common to all, as to experiment: inhibition of tumour cell growth, NCI panel, 48 h
Test [1] relates to HCC 2998.
In test [2] the test system is MCF7.
In test [3] the test system is COLO 205.
Test [4] relates to DU-145.
Test [5] has as its system HOP-62.
Test [6] relates to U-251.
Test [7] concerns M14.
For test [8], the system named is BT-549.
The subject of test [9] is UO-31.
Test [10] has as its system RXF 393.
The test system of test [11] is SNB-19.
The subject of test [12] is 786-0.
Test [13] relates to Malme-3M.
The test system of test [14] is Hs-578T.
Test [15] has as its system HT-29.
The subject of test [16] is SK-OV-3.
Test [17] relates to RPMI-8226.
The test system of test [18] is OVCAR-5.
The subject of test [19] is OVCAR-4.

Take `C[C@]12CC[C@H](O)C[C@@H]1CC[C@@H]1[C@@H]2CC[C@]2(C)[C@@H](c3cc(C(F)(F)F)[nH]n3)CC[C@@H]12`: the GI50 in test [1] was 15 µM (inactive); in test [2], 5.75 µM (inactive); in [3], 4.13 µM (inactive); in test [4], 10.9 µM (inactive); in [5] it was 7.38 µM (inactive); in test [6], 7.01 µM (inactive). Besides, the GI50 in test [7] was 9.1 µM (inactive); in [8], 8.39 µM (inactive); in [9] it was 1.51 µM (inactive); in test [10], 4.15 µM (inactive); in test [11], 9.68 µM (inactive); in [12], 4.35 µM (inactive). In addition, the GI50 was > 37.3 µM (inactive) in [13]; > 35.6 µM (inactive) in test [14]; 4.27 µM (inactive) in test [15]; 13.8 µM (inactive) in [16]; 3.96 µM (inactive) in test [17]; 10.5 µM (inactive) in [18]. In test [19], the GI50 is 6.64 µM (inactive).
Turning to `CN(C)CC1CCC/C(=C\c2ccc(OC(=O)/C=C/c3ccc(Cl)cc3)cc2)C1=O` (stereo not given), the GI50 is 5.43 µM (inactive) in test [1]; 1.08 µM (active) in [2]; 0.78 µM (active) in [3]; 5.2 µM (inactive) in [4]; 6.25 µM (inactive) in test [5]; 3.13 µM (inactive) in test [6]. The GI50 in test [7] is 6.1 µM (inactive); in test [8], 0.217 µM (active); in test [9], 4.99 µM (inactive); in test [10], 1.32 µM (inactive); in [11], 8.43 µM (inactive); in test [12] it was 1.07 µM (active). The GI50 in test [13] is 9.06 µM (inactive); in test [14], 4.92 µM (inactive); in test [15], 2.07 µM (inactive); in test [16], 21.3 µM (inactive); in test [17] it was 0.294 µM (active); in test [18], 16.7 µM (inactive). In test [19], the GI50 was 12.5 µM (inactive).
For `CNC(c1ccncc1)C(NC)c1ccncc1` (stereo not given), the GI50 in test [1], in test [2], in [3], in test [4], in test [5] and in test [6] was > 100 µM (inactive) throughout. Also, the GI50 in test [7], in test [8], in test [9], in test [10], in test [11] and in test [12] was > 100 µM (inactive) each time. Moreover, the GI50 in test [13] is > 100 µM (inactive); in [14], 90.8 µM (inactive); in test [15], > 100 µM (inactive); in test [16], > 100 µM (inactive); in [17], > 100 µM (inactive); in test [18], > 100 µM (inactive). Also, in test [19], the GI50 was > 100 µM (inactive).
Turning to `OC[C@H]1CC(c2nn[nH]n2)[C@H](O)[C@@H]1O` (stereo not given in full), the GI50 in test [1], in [2], in [3], in test [4], in test [5] and in [6] was > 100 µM (inactive) throughout. Besides, the GI50 in test [7] is > 100 µM (inactive); in test [8], > 100 µM (inactive); in test [9] it was > 100 µM (inactive); in test [10], 8.13 µM (inactive); in [11], > 100 µM (inactive); in test [12] it was > 100 µM (inactive). The GI50 in [13], in test [14], in test [15], in test [16], in test [17] and in test [18] was > 100 µM (inactive) in each case. Besides, in test [19], the GI50 was > 100 µM (inactive).
For the molecule `COC(=NCCC1=CCCCC1)OC`, the GI50 in test [1] was 22 µM (inactive); in [2], 47.6 µM (inactive); in [3], 16.3 µM (inactive); in test [4], > 100 µM (inactive); in test [5], > 100 µM (inactive); in [6] it was 71.3 µM (inactive). In addition, the GI50 is 21.1 µM (inactive) in test [7]; > 100 µM (inactive) in [8]; 53 µM (inactive) in test [9]; > 100 µM (inactive) in test [10]; > 100 µM (inactive) in [11]; 81.3 µM (inactive) in test [12]. Also, the GI50 in test [13] is 31.2 µM (inactive); in test [14], > 100 µM (inactive); in [15], 18.2 µM (inactive); in test [16], > 100 µM (inactive); in test [17], 32.1 µM (inactive); in test [18] it was 51.3 µM (inactive). Besides, the GI50 in test [19] was > 100 µM (inactive).
As for `COC(=O)C1=C(C)NC(C)=C(C(=O)OC)C1c1ccc(/[N+]([O-])=C/c2ccccc2)cc1`, the GI50 in [1] is > 100 µM (inactive); in test [2], 16.7 µM (inactive); in [3], 19 µM (inactive); in test [4] it was > 100 µM (inactive); in [5], 83.2 µM (inactive); in [6], > 100 µM (inactive). Moreover, the GI50 in [7] was 18.1 µM (inactive); in [8], 18.8 µM (inactive); in test [9], 37.1 µM (inactive); in test [10] it was 19.7 µM (inactive); in test [11], 94.2 µM (inactive); in [12] it was 17.3 µM (inactive). Also, the GI50 in test [13] is 17.3 µM (inactive); in test [14], 41.3 µM (inactive); in test [15] it was 48.9 µM (inactive); in test [16], > 100 µM (inactive); in test [17], 66.1 µM (inactive); in test [18], > 100 µM (inactive). Besides, the GI50 in test [19] is 17.3 µM (inactive).
Regarding `COc1cc(/C=C2\CC(C)C/C(=C\c3ccc(O)c(OC)c3)C2=O)ccc1O` (stereo not given), the GI50 in test [1] was 3.21 µM (inactive); in [2] it was 4.66 µM (inactive); in test [3], 10.9 µM (inactive); in [4] it was 3.72 µM (inactive); in test [5], 3.46 µM (inactive); in test [6], 2.38 µM (inactive). The GI50 in [7] was 3.04 µM (inactive); in [8], 3.23 µM (inactive); in [9] it was 2.24 µM (inactive); in [10], 2.85 µM (inactive); in test [11], 10.2 µM (inactive); in test [12], > 20.2 µM (inactive). For the same molecule, the GI50 in test [13] is 1.9 µM (inactive); in [14] it was 2.05 µM (inactive); in test [15], 6.37 µM (inactive); in [16], 3.49 µM (inactive); in [17], 3.58 µM (inactive); in test [18] it was 19.6 µM (inactive). The GI50 in test [19] was 2.52 µM (inactive).
For `Nc1ccc(CCSSCCc2ccc(N)cc2)cc1`, the GI50 in test [1] was 17.6 µM (inactive); in test [2], 29.7 µM (inactive); in test [3], 41.1 µM (inactive); in [4] it was 28.3 µM (inactive); in test [5], 55.2 µM (inactive); in test [6], 19.6 µM (inactive). In addition, the GI50 is 30 µM (inactive) in test [7]; 25.5 µM (inactive) in test [8]; 22.7 µM (inactive) in test [9]; 21.8 µM (inactive) in test [10]; 50.7 µM (inactive) in test [11]; 17 µM (inactive) in test [12]. Further, the GI50 in test [13] was 12.2 µM (inactive); in test [14], 16.2 µM (inactive); in test [15], 21.8 µM (inactive); in [16] it was 43.6 µM (inactive); in test [17] it was 25.1 µM (inactive); in [18], 29.6 µM (inactive). In [19], the GI50 was 28.6 µM (inactive).
As to `CCC1(O)CC(OC2CC(N(C)C)C(OC3CC(O)C(OC4CCC(=O)C(C)O4)C(C)O3)C(C)O2)c2c(cc3c(c2O)C(=O)c2c(O)ccc(O)c2C3=O)C1C(=O)OC` (stereo not given), the GI50 in [1], in [2], in test [3], in test [4], in test [5] and in test [6] was < 0.01 µM (active) throughout. Besides, the GI50 in test [7] is < 0.01 µM (active); in [8] it was < 0.0152 µM (active); in test [9], < 0.01 µM (active); in test [10], < 0.01 µM (active); in test [11], < 0.0127 µM (active); in test [12] it was < 0.01 µM (active). Besides, the GI50 was < 0.01 µM (active) in test [13]; < 0.0407 µM (active) in test [14]; < 0.01 µM (active) in [15]; < 0.01 µM (active) in [16]; < 0.01 µM (active) in [17]; 0.0123 µM (active) in test [18]. In test [19], the GI50 was < 0.01 µM (active).
With `CCN(CC)Cc1nc2sc3c(c2c(=O)n1-c1ccccc1)CCCC3`, the GI50 is 17.6 µM (inactive) in test [1]; 17.5 µM (inactive) in [2]; 17.7 µM (inactive) in test [3]; 23 µM (inactive) in [4]; 27.4 µM (inactive) in test [5]; 16.9 µM (inactive) in test [6]. Besides, the GI50 in test [7] was 15.9 µM (inactive); in test [8] it was 28.3 µM (inactive); in test [9], 11.2 µM (inactive); in test [10], 18.5 µM (inactive); in test [11] it was 35.6 µM (inactive); in [12], 17.7 µM (inactive). Besides, the GI50 in test [13] is 23.3 µM (inactive); in test [14], 34.5 µM (inactive); in test [15], 12.9 µM (inactive); in [16], 23.7 µM (inactive); in test [17] it was 26.7 µM (inactive); in test [18], 19.7 µM (inactive). Moreover, the GI50 in test [19] was 15.6 µM (inactive).
